Test results from patent US20050232864A1, “Method for phenotyping using nmr spectroscopy” (priority 2002, published 2005).

Assay: Pharmacokinetic parameters of CBZ in rabbit plasma by DNP-NMR compared with LC-MS (Example 3)
Assay type: in vivo
Settings: single oral dose 40 mg/kg CBZ
Experimental: Samples were collected at 8 time points over a period of 24 hours, at the following times: 0 min., 15 min., 30 min., 1 hour, 2 hours, 4 hours, 8 hours and 24 hours. 2 ml blood was withdrawn from the marginal ear vein of the rabbit. Plasma was extracted from the blood and divided into two samples, one for LC-MS analysis and one for DNP and NMR analysis (˜0.5 ml for each).
Rabbit plasma (400 μl) in a 2 ml vial was treated with acetonitrile (750 μl) and sonicated with a sonication probe for 15 sec. Another portion of acetonitrile (750 μl) was added to the vial so as to rinse the probe, the vial was closed, agitated briefly on a whirly mixer and centrifuged at 14 000 rev/min for about 1 min. The supernatant was transferred into a fresh vial in portions and evaporated in a ThermoSavant SPD 111V speedvac. Towards the end of the evaporation, 20 μl of an aqueous stock solution of EDTA (1 μg/μl) was added and the mixture was evaporated to dryness. 50 μl of the stock solvent as described below was added to the solid residue, and the added weight was noted. The sample was sonicated for 15 min to dissolve the residue and centrifuged to force the whole sample to the bottom of the vial. The vial was weighed together with a pipette tip and the sample was collected into the pipette tip and dispensed drop wise into liquid nitrogen. The used vial and pipette tip was weighed again to assess the actual weight of the sample. The cooled sample pellets were placed in a sample cup and administered into a DNP-polariser.
The volume of the radical is not accounted for in the calculation.
The sample was dissolved in heated (60° C.) methanol-D4 containing 75 μg EDTA per 7.0 ml of methanol. The dissolved sample was collected in a 10 mm NMR-tube fitted with a NMR-spinner and kept in a portable magnetic field (12 mT). The sample was moved from the polariser into the NMR magnet as expediently as possible making sure that the tube is protected in the portable magnetic field during the transport.
A 1D ^13C NMR-spectrum was acquired with a 10 mm Varian direct detection probe at 100.393 MHz (400 MHz ^1H). […] The NMR acquisition parameters were a spectral width of 40 kHz (400 ppm), an acquisition time of 2.5 s, and a pulse angle of 90. […] The spectrum was acquired 5 s after dissolution was initiated.
First, the reference ^13C-NMR signal from HP001 was analysed by selecting one Lorentzian line shape model function to describe the signal. The algorithm calculates phase, amplitude, damping (or line width in frequency domain) and frequency. The first order phase was set fixed at zero. […] All phases of the peaks were zero with respect to the main phase and a Lorentzian line shape model function was assumed. […] The first order phase was fixed at zero, the zero order phase was determined by the algorithm.
0.11 μg, 0.33 μg, 0.5 μg, 1.0 μg, 1.5 μg, and 2.0 μg were spiked into […] rabbit plasma, incubated at 37° C. and prepared as described in the section on sample preparation.

[1] = Table 2, footnote: E-CBZ levels calculated, DNP-NMR
[2] = Table 2, footnote: E-CBZ levels calculated, LC-MS

## carbamazepine [CBZ]
Table 1, CBZ levels, DNP-NMR
  AUC0.5-8h: 52 µM·h
  Cmax: 12 µM
Table 1, CBZ levels, LC-MS
  AUC0.5-8h: 60 µM·h
  Cmax: 13.3 µM
[1]
  AUC0.5-8h: 52 µM·h
  Cmax: 12 µM
[2]
  AUC0.5-8h: 60 µM·h
  Cmax: 13.3 µM
